In DBAASP:
In brackets after ≈: the same amount, converted by molar mass. Several values for one entry are separate records, joined by “and”; a condition that tells them apart may be missing. Equal entries are not always repeated. One block for each compound: values may come before it.

Assays:
Assay in all cases: ≥ marks a high value that may be exact or a test limit, other limits are often not marked, values filed in µg/mL are converted to µM
[1] = tested on: Streptococcus mutans UA159
[2] = tested on: Streptococcus mutans GS-5
[3] = tested on: Streptococcus gordonii ATCC 10558
[4] = tested on: Streptococcus sanguinis ATCC 49295
[5] = tested on: Staphylococcus aureus ATCC 25923
[6] = tested on: Candida albicans NCTC 3179
[7] = tested on: Escherichia coli ATCC 25922
Ramulariopsis gossypii = tested on: Ramulariopsis gossypii
[8] = tested on: Xanthomonas campestris pv. citri
[9] = tested on: Cryptococcus neoformans ATCC 28957
Trichoderma asperellum = tested on: Trichoderma asperellum
Fusarium solani = tested on: Fusarium solani
[10] = tested on: Fusarium oxysporum f.sp. vasinfectum
[11] = tested on: Candida albicans ATCC 90028
Rhizoctonia solani = tested on: Rhizoctonia solani
[12] = tested on: Pectobacterium carotovorum
[13] = tested on: Pseudomonas aeruginosa ATCC 27853
Fusarium oxysporum = tested on: Fusarium oxysporum
[14] = tested on: Bacillus cereus ATCC 14579
[15] = tested on: Pseudomonas syringae pv. tabaci
[16] = tested on: Bacillus subtilis ATCC 23857
[17] = tested on: Staphylococcus aureus MTCC 96
[18] = tested on: Pseudomonas aeruginosa MTCC 2488
[19] = tested on: Klebsiella pneumoniae MTCC 443
[20] = tested on: Escherichia coli CCARM 1238
[21] = tested on: Trichosporon beigelii KCTC 7707
[22] = tested on: Pseudomonas aeruginosa 4007
[23] = tested on: Staphylococcus aureus CCARM 3518
[24] = tested on: Escherichia coli CCARM 1229
[25] = tested on: Candida albicans KCTC 7270
[26] = tested on: Pseudomonas aeruginosa 4891
[27] = tested on: Staphylococcus aureus CCARM 3090
[28] = tested on: Pseudomonas aeruginosa 5167
[29] = tested on: Pseudomonas aeruginosa 8600
[30] = tested on: Pseudomonas aeruginosa 1570
Vibrio fluvialis = tested on: Vibrio fluvialis
Escherichia coli = tested on: Escherichia coli
Vibrio alginolyticus = tested on: Vibrio alginolyticus
Streptococcus pyogenes = tested on: Streptococcus pyogenes
Vibrio parahaemolyticus = tested on: Vibrio parahaemolyticus
Staphylococcus aureus = tested on: Staphylococcus aureus
Aeromonas hydrophila = tested on: Aeromonas hydrophila
[31] = tested on: Klebsiella pneumoniae KCTC 2208
[32] = tested on: Acinetobacter baumannii KCTC 2508

Compound: CC[C@H](C)[C@H](NC(=O)[C@@H]1CCCN1C(=O)CNC(=O)[C@H](CO)NC(=O)[C@H](CO)NC(=O)[C@@H](NC(=O)[C@H](C)NC(=O)[C@H](CCC(N)=O)NC(=O)[C@H](Cc1ccccc1)NC(=O)[C@H](CCCN=C(N)N)NC(=O)[C@H](CC(C)C)NC(=O)[C@H](CC(C)C)NC(=O)[C@H](CC(C)C)NC(=O)[C@H](CCC(=O)O)NC(=O)[C@H](CCC(=O)O)NC(=O)[C@H](CO)NC(=O)[C@H](C)N)[C@@H](C)O)C(=O)N[C@@H](CC(C)C)C(=O)N[C@@H](CCCN=C(N)N)C(=O)N[C@@H](CCC(=O)O)C(=O)N[C@@H](CCC(=O)O)C(=O)N[C@@H](Cc1ccccc1)C(=O)N[C@@H](CCC(=O)O)C(=O)O [ASEELLLRFQATSSGPILREEFE]
MIC [5]: > 95.3 µM | MIC [6]: ≥ 95.3 µM | MIC [7]: > 95.3 µM

Compound: CSCC[C@H](NC(=O)[C@H](Cc1ccccc1)NC(=O)CNC(=O)[C@H](Cc1cnc[nH]1)NC(=O)[C@H](CC(C)C)NC(=O)[C@H](CO)NC(=O)CN)C(=O)N[C@@H](Cc1ccc(O)cc1)C(=O)N[C@@H](CCCCN)C(=O)N[C@@H](Cc1ccc(O)cc1)C(=O)N[C@@H](CC(C)C)C(=O)N[C@@H](CCCCN)C(=O)N[C@H](C(=O)N[C@@H](CC(C)C)C(=O)N[C@H](C(=O)N[C@@H](CC(C)C)C(=O)N[C@@H](CCCN=C(N)N)C(=O)N[C@@H](CC(C)C)C(=O)N[C@@H](Cc1ccc(O)cc1)C(N)=O)C(C)C)[C@@H](C)O [GSLHGFMYKYLKTLVLRLY]
MIC (Ramulariopsis gossypii): 2 µM (≈ 4.6 µg/mL) | MIC [8]: 16 µM (≈ 36.8 µg/mL) | MIC [9]: 4 µM (≈ 9.21 µg/mL) | MIC (Trichoderma asperellum): 16 µM (≈ 36.8 µg/mL) | MIC (Fusarium solani): 4 µM (≈ 9.21 µg/mL) | MIC [10]: 10.7 µM (≈ 24.6 µg/mL) | MIC [11]: 6.67 µM (≈ 15.4 µg/mL) | MIC [5]: 16 µM (≈ 36.8 µg/mL) | MIC (Rhizoctonia solani): ≥ 32 µM | MIC [12]: 16 µM (≈ 36.8 µg/mL) | MIC [13]: 16 µM (≈ 36.8 µg/mL) | MIC (Fusarium oxysporum): 16 µM (≈ 36.8 µg/mL) | MIC [14]: ≥ 64 µM | MIC [15]: ≥ 32 µM | MIC [7]: 13.3 µM (≈ 30.7 µg/mL) | MIC [16]: 8 µM (≈ 18.4 µg/mL)

Compound: CC[C@H](C)[C@H](NC(=O)[C@H](CCCCN)NC(=O)[C@H](CCCCN)NC(=O)[C@@H](NC(=O)[C@H](C)NC(=O)[C@H](CCC(=O)O)NC(=O)[C@H](Cc1cnc[nH]1)NC(=O)[C@@H](NC(=O)[C@H](CCCCN)NC(=O)[C@H](CCC(N)=O)NC(=O)[C@H](Cc1ccccc1)NC(=O)[C@@H](NC(=O)[C@H](CCCCN)NC(=O)[C@H](CCCCN)NC(=O)[C@H](CC(C)C)NC(=O)[C@H](C)NC(=O)[C@H](CC(N)=O)NC(=O)[C@@H](N)CC(C)C)C(C)C)[C@@H](C)CC)[C@@H](C)CC)C(N)=O [LNALKKVFQKIHEAIKKI]
MIC [20]: 2 µM (≈ 4.24 µg/mL) | MIC [21]: 16 µM (≈ 33.9 µg/mL) | MIC [22]: 4 µM (≈ 8.48 µg/mL) | MIC [23]: 4 µM (≈ 8.48 µg/mL) | MIC [24]: 2 µM (≈ 4.24 µg/mL) | MIC [25]: 16 µM (≈ 33.9 µg/mL) | MIC [26]: 4 µM (≈ 8.48 µg/mL) | MIC [27]: 4 µM (≈ 8.48 µg/mL)

Compound: CC(C)C[C@H](NC(=O)[C@H](CCCCN)NC(=O)[C@H](CCC(N)=O)NC(=O)[C@@H](NC(=O)[C@H](C)NC(=O)[C@H](CCC(=O)O)NC(=O)CNC(=O)CN)C(C)C)C(=O)N[C@H](C(=O)N[C@@H](CCCN=C(N)N)C(=O)N[C@@H](CCC(=O)O)C(=O)N[C@H](C(=O)N[C@@H](CCCCN)C(=O)N[C@@H](CC(=O)O)C(=O)NCC(=O)O)C(C)C)C(C)C [GGEAVQKLVREVKDG]
MIC (Vibrio fluvialis): ≥ 78.9 µM | MIC (Escherichia coli): > 158 µM | MIC (Vibrio alginolyticus): ≥ 78.9 µM | MIC (Streptococcus pyogenes): ≥ 158 µM | MIC (Vibrio parahaemolyticus): ≥ 158 µM | MIC (Staphylococcus aureus): > 158 µM | MIC (Aeromonas hydrophila): ≥ 158 µM

Compound: CC[C@H](C)[C@H](N)C(=O)N[C@@H](C)C(=O)N[C@@H](CCCN=C(N)N)C(=O)N[C@@H](CCCN=C(N)N)C(=O)N[C@@H](C)C(=O)N[C@@H](CC(C)C)C(=O)N[C@@H](CCCCN)C(=O)N[C@@H](CCCCN)C(=O)N[C@@H](C)C(=O)N[C@@H](CCCCN)C(=O)N[C@@H](CCCN=C(N)N)C(=O)N[C@@H](C)C(=O)N[C@@H](CCCN=C(N)N)C(=O)N[C@@H](Cc1cnc[nH]1)C(=O)N[C@H](C(=O)N[C@H](C(=O)N1CCC[C@H]1C(=O)N[C@@H](CCC(N)=O)C(=O)N[C@@H](CS)C(=O)N[C@@H](CCCCN)C(=O)N[C@@H](CCCCN)C(=O)N[C@@H](Cc1ccccc1)C(=O)NCC(=O)N[C@@H](CCCN=C(N)N)C(=O)N[C@@H](CCCN=C(N)N)C(N)=O)[C@@H](C)CC)[C@@H](C)O [IARRALKKAKRARHTIPQCKKFGRR]
MIC [31]: 8 µM (≈ 23.9 µg/mL) | MIC [32]: 4 µM (≈ 12 µg/mL) | MIC [13]: 1 µM (≈ 2.99 µg/mL)

More lines, now with the values ahead:

MIC [1]: ≥ 224 µM | MIC [2]: ≥ 224 µM | MIC [3]: ≥ 224 µM | MIC [4]: ≥ 224 µM
Compound: CC(C)C[C@H](NC(=O)[C@H](CCCN=C(N)N)NC(=O)[C@H](Cc1ccccc1)NC(=O)[C@H](Cc1ccccc1)NC(=O)[C@@H](NC(=O)[C@H](CO)NC(=O)[C@@H](N)CC(C)C)[C@@H](C)O)C(=O)N[C@@H](Cc1ccccc1)C(=O)N[C@@H](CC(N)=O)C(=O)O [LSTFFRLFN]

MIC [17]: ≥ 80 µM | MIC [18]: 30 µM (≈ 27.8 µg/mL) | MIC [19]: ≥ 50 µM
Compound: CC(C)C[C@H](NC(=O)[C@H](CCCCN)NC(=O)[C@H](CCCCN)NC(=O)[C@H](CC(C)C)NC(=O)[C@H](Cc1c[nH]c2ccccc12)NC(=O)[C@H](CCCCN)NC(=O)[C@@H](N)CC(C)C)C(N)=O [LKWLKKL]

MIC [28]: ≥ 59.6 µM | MIC [13]: 7.45 µM and 14.9 µM | MIC [29]: 5.27 µM (≈ 5.65 µg/mL) | MIC [30]: 21.1 µM (≈ 22.6 µg/mL)
Compound: CC(C)C[C@H](NC(=O)[C@H](CC(C)C)NC(=O)[C@H](CCCCN)NC(=O)[C@H](CCCCN)NC(=O)[C@H](CC(C)C)NC(=O)[C@H](CC(C)C)NC(=O)[C@H](CCCCN)NC(=O)[C@H](C)NC(=O)[C@@H](N)Cc1ccccc1)C(N)=O [FAKLLKKLL]
